For data set [1] the following is noted: amide bond, DMF.
Data set [2] deals with T1, CFTR (Homo sapiens, UniProt P13569). In words: Membrane Potential Dye, Enteroid Assay A. The data set is classed as cell-based. The conditions noted are these: for EC50: read-out: Ent. A EC50. On the procedure:
Base medium (ADF+++) consisted of Advanced DMEM/Ham's F12, 2 mM Glutamax, 10 mM HEPES, 1 µg/mL penicillin/streptomycin.
Intestinal enteroid maintenance medium (IEMM) consisted of ADF+++, 1× B27 supplement, 1× N2 supplement, 1.25 mM N-acetyl cysteine, 10 mM Nicotinamide, 50 ng/mL hEGF, 10 nM Gastrin, 1 pg/mL hR-spondin-1, 100 ng/mL hNoggin, TGF-b type 1 inhibitor A-83-01, 100 μg/mL Primocin, […] P38 MAPK inhibitor SB202190.
Bath 1 Buffer consisted of 1 mM MgCl2, 160 mM NaCl, 4.5 mM KCl, 10 mM HEPES, 10 mM Glucose, 2 mM CaCl2).
Chloride Free Buffer consisted of 1 mM Magnesium Gluconate, 2 mM Calcium Gluconate, 4.5 mM Potassium Gluconate, 160 mM Sodium Gluconate, 10 mM HEPES, 10 mM Glucose.
Bath1 Dye Solution consisted of Bath 1 Buffer, 0.04% Pluronic F127, […] Methyl Oxonol, 30 μM CaCCinh-A01, 30 μM Chicago Sky Blue.
Chloride Free Dye Solution consisted of Chloride Free Buffer, 0.04% Pluronic F127, 20 μM Methyl Oxonol, 30 μM CaCCinh-A01, 30 μM Chicago Sky Blue.
Chloride Free Dye Stimulation Solution consisted of Chloride Free Dye Solution, 10 μM forskolin, 100 μM IBMX, and 300 nM Compound III.
Human intestinal epithelial enteroid cells were obtained from the Hubrecht Institute for Developmental Biology and Stem Cell Research, Utrecht, The Netherlands and expanded in T-Flasks as previously described (Dekkers J F, Wiegerinck C L, de Jonge H R, Bronsveld I, Janssens H M, de Winter-de Groot K M, Brandsma A M, de Jong N W M, Bijvelds M J C, Scholte B J, Nieuwenhuis E E S, van den Brink S, Clevers H, van der Ent C K, Middendorp S and M Beekman J M. A functional CFTR assay using primary cystic fibrosis intestinal organoids. Nat Med. 2013 July; 19(7):939-45.).
Cells were recovered in cell recovery solution, collected by centrifugation at 650 rpm for 5 min at 4° C., resuspended in TryPLE and incubated for 5 min at 37° C. Cells were then collected by centrifugation at 650 rpm for 5 min at 4° C. and resuspended in IEMM containing 10 μM ROCK inhibitor (RI). The cell suspension was passed through a 40 μm cell strainer and resuspended at 1×10^6 cells/mL in IEMM containing 10 μM RI. Cells were seeded at 5000 cells/well into multi-well plates and incubated for overnight at 37° C., 95% humidity and 5% CO2 prior to assay.
Enteroid cells were incubated with test compound in IEMM for 18-24 hours at 37° C., 95% humidity and 5% CO2. […] Briefly, cells were washed 5 times in Bath 1 Buffer. Bath 1 Dye Solution was added, and the cells were incubated for 25 min at room temperature. Following dye incubation, cells were washed 3 times in Chloride Free Dye Solution. Chloride transport was initiated by addition of Chloride Free Dye Stimulation Solution and the fluorescence signal was read for 15 min. […] Chloride transport was then expressed as a percentage of the chloride transport following treatment with 3 μM (S)—N-((6-aminopyridin-2-yl)sulfonyl)-6-(3-fluoro-5-isobutoxyphenyl)-2-(2,2,4-trimethylpyrrolidin-1-yl)nicotinamide, 3 μM (R)-1-(2,2-difluorobenzo[d][1,3]dioxol-5-yl)-N-(1-(2,3-dihydroxypropyl)-6-fluoro-2-(1-hydroxy-2-methylpropan-2-yl)-1H-indol-5-yl)cyclopropanecarboxamide and 300 nM acute N-[2,4-bis(1,1-dimethylethyl)-5-hydroxyphenyl]-1,4-dihydro-4-oxoquinoline-3-carboxamide triple combination control (% Activity).

For data set [3], the target named is T1, CFTR. In words: Membrane Potential Dye, Enteroid Assay B. Type of data set: cell-based. The conditions noted are these: for EC50: read-out: Ent. B EC50. In short, it runs like this: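 Membrane-potential fluorescence read over 15 min after chloride-free stimulation (forskolin 10 μM, IBMX 100 μM, Compound III 300 nM), with CaCCinh-A01 and Chicago Sky Blue present. Enteroids had 18-24 h compound exposure at 37 °C; activity given as % of the triple-combination corrector/potentiator reference response.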

Like-named read-outs stand apart in the source and are kept apart here. Some results are limits rather than exact numbers.

T1 sequence (P13569 with tags, fused parts or gaps DEL508-508): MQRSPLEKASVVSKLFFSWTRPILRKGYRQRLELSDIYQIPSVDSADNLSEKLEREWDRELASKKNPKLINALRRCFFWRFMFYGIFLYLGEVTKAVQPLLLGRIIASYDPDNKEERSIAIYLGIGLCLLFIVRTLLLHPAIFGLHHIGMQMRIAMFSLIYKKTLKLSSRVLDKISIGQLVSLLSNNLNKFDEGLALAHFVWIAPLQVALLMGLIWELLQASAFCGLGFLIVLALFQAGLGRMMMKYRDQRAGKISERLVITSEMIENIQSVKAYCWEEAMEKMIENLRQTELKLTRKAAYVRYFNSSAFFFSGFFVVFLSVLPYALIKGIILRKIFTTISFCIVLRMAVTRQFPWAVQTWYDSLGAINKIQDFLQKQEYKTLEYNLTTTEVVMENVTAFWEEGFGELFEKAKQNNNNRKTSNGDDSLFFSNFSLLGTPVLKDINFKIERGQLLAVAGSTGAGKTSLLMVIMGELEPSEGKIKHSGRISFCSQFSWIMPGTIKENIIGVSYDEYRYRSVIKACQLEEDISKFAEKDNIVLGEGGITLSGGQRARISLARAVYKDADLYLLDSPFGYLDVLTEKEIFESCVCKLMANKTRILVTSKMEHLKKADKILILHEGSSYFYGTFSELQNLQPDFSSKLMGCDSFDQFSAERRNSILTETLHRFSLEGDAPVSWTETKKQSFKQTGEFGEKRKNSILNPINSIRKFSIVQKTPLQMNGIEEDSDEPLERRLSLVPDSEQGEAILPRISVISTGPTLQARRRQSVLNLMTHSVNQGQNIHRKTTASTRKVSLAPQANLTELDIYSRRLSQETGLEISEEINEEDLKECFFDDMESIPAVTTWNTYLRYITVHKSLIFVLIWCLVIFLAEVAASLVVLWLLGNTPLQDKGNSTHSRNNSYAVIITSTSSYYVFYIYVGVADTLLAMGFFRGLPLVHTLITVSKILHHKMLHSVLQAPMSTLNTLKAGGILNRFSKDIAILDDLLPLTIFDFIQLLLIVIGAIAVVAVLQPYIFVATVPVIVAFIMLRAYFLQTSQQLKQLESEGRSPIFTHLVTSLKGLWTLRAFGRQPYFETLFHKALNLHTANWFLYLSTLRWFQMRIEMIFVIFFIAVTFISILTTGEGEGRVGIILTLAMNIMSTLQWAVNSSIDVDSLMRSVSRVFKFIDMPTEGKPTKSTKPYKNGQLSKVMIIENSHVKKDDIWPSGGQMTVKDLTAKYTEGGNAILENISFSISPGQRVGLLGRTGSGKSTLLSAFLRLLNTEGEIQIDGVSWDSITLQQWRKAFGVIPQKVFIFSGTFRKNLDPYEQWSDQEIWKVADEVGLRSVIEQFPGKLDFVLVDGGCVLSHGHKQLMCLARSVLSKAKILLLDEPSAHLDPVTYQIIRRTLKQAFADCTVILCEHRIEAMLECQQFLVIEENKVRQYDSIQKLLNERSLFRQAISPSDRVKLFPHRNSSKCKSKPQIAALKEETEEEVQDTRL

As for “(5M,11R)-11-(2,2-dimethylpropyl)-12-({5-[(2,2-dimethylpropyl)(methyl)amino]pyrimidin-2-yl}methyl)-7-methyl-6-[2-methyl-6-(2-methylpropyl)phenyl]-9-oxa-2λ^6-thia-3,5,12,19-tetraazatricyclo[12.3.1.14,8]nonadeca-1(17),4(19),5,7,14(18),15-hexaene-2,2,13-trione”, in data set [1] (13-membered ring, CDMT/NMM, 2 steps), the ring closure, yield after HPLC is 20%.

Consider `COc1c2nc(nc1-c1c(C)cccc1C)NS(=O)(=O)c1cccc(c1)C(=O)N(C1CC3(CCN(C(=O)OC(C)(C)C)CC3)C1)[C@H](CC(C)C)CO2`, for which the ring closure, yield after HPLC in data set [1] (13-membered ring, HATU/DIEA) amounted to 22%.

As to `Cc1cccc(CC(C)(C)C)c1-c1nc2nc(c1C)OC[C@@H](CC(C)(C)C)N(Cc1ncc(N3CCC(C)(C)C3)cn1)C(=O)c1cccc(c1)S(=O)(=O)N2`, the ring closure, yield after HPLC stood at 11% in data set [1] (from Cc1cccc(CC(C)(C)C)c1-c1nc(NS(=O)(=O)c2cccc(C(=O)O)c2)nc(OC[C@@H](CC(C)(C)C)NCc2ncc(N3CCC(C)(C)C3)cn2)c1C, 13-membered ring, CDMT/NMM, 11.0 mM, 16.0 h, 2 steps) and 7% in data set [1] (from Cc1cccc(CC(C)(C)C)c1-c1nc(NS(=O)(=O)c2cccc(C(=O)O)c2)nc(OC[C@@H](CC(C)(C)C)NCc2ncc(N3CCC(C)(C)C3)cn2)c1C, 13-membered ring, CDMT/NMM, 12.0 mM, 16.0 h, 2 steps).

Consider `Cc1ccc2cc1Oc1cc(-c3c(C)cccc3C)nc(n1)NS(=O)(=O)c1cccc(c1)NC2=O`, for which the ring closure, yield after HPLC in data set [1] (from Cc1ccc(C(=O)O)cc1Oc1cc(-c2c(C)cccc2C)nc(NS(=O)(=O)c2cccc(N)c2)n1, 14-membered ring, HATU/DIEA, 78.0 mM, 25.0 °C, 0.083 h, 3 steps) stood at 26%.

As for `CC(C)C[C@@H]1COc2nc(nc(-c3ccccc3C(C)C)c2C(F)(F)F)NS(=O)(=O)c2cccc(c2)C(=O)N1` [Compound 164, (11R)-11-Isobutyl-6-(2-isopropylphenyl)-2,2-dioxo-7-(trifluoromethyl)-9-oxa-2λ^6-thia-3,5,12,19-tetrazatricyclo[12.3.1.14,8]nonadeca-1(18),4,6,8(19),14,16-hexaen-13-one], in data set [2], the “Ent. A Max Activity” value is “+++ (+++ is >60%)” and the EC50 (as a rule, the concentration that produces a half-maximal response) was less than 1000 nM. Moreover, in data set [3], the “Ent. B Max Activity” value was “+++ (+++ is >60%)” and the EC50 is less than 1000 nM.

For `Cc1cccc(CC2CCOCC2)c1-c1nc2nc(c1C)OC[C@@H](CC(C)(C)C)N(Cc1ncc(N3CCOCC3)cn1)C(=O)c1cccc(c1)S(=O)(=O)N2`, the ring closure, yield after HPLC in data set [1] (from Cc1cccc(CC2CCOCC2)c1-c1nc(NS(=O)(=O)c2cccc(C(=O)O)c2)nc(OC[C@@H](CC(C)(C)C)NCc2ncc(N3CCOCC3)cn2)c1C, 13-membered ring, CDMT/NMM, 41.0 mM, 19.0 h) came to 25%.

For `CCc1c2nc(nc1-c1c(C)cccc1C)NS(=O)(=O)c1cccc(c1)C(=O)N(C1CC3(CCN(C)CC3)C1)[C@H](CC(C)C)CO2` [Compound 159, (11R)-6-(2,6-Dimethylphenyl)-7-ethyl-11-isobutyl-12-(7-methyl-7-azaspiro[3.5]nonan-2-yl)-2,2-dioxo-9-oxa-2λ^6-thia-3,5,12,19-tetrazatricyclo[12.3.1.14,8]nonadeca-1(17),4(19),5,7,14(18),15-hexaen-13-one], in data set [2], the “Ent. A Max Activity” value was “+++ (+++ is >60%)” and the EC50 was less than 1000 nM. Also, in data set [3], the “Ent. B Max Activity” value was “+++ (+++ is >60%)” and the EC50 is less than 1000 nM.

For `CCc1c2nc(nc1-c1c(C)cccc1C)NS(=O)(=O)c1cccc(c1)C(=O)N(C1CC3(CCN(C(=O)OC(C)(C)C)CC3)C1)[C@H](CC(C)C)CO2` [Compound 158, tert-butyl 2-[(11R)-6-(2,6-dimethylphenyl)-7-ethyl-11-isobutyl-2,2,13-trioxo-9-oxa-2λ^6-thia-3,5,12,19-tetrazatricyclo[12.3.1.14,8]nonadeca-1(17),4(19),5,7,14(18),15-hexaen-12-yl]-7-azaspiro[3.5]nonane-7-carboxylate], in data set [2], the “Ent. A Max Activity” value is listed as “+++ (+++ is >60%)” and the EC50 was less than 1000 nM. In data set [3], the “Ent. B Max Activity” value is reported as “+++ (+++ is >60%)” and the EC50 was less than 1000 nM.

As to `CCc1c2nc(nc1-c1c(C)cccc1C)NS(=O)(=O)c1cccc(c1)C(=O)N[C@H](CC(C)C)CO2` [Compound 190], in data set [2], the “Ent. A Max Activity” value was “+++ (+++ is >60%)” and the EC50 is less than 1000 nM. For the same compound, in data set [3], the “Ent. B Max Activity” value is “+++ (+++ is >60%)” and the EC50 is less than 1000 nM.

As to `Cc1cccc(C)c1-c1nc2nc(c1OC(C)C)OC[C@@H](CC(C)C)N(C1CC3(CCN(C(=O)OC(C)(C)C)CC3)C1)C(=O)c1cccc(c1)S(=O)(=O)N2` [Compound 177], in data set [2], the “Ent. A Max Activity” value is recorded as “+++ (+++ is >60%)” and the EC50 is less than 1000 nM. Besides, in data set [3], the “Ent. B Max Activity” value was “+++ (+++ is >60%)” and the EC50 is less than 1000 nM.
